From US8754075B2, “1,3-oxazines as BACE1 and/or BACE2 inhibitors” (Hoffmann-La Roche Inc., priority 2011, dated 2014) come the findings set out here.

One may read the IC50 as the concentration at which inhibition is half-maximal. A high value points to weaker potency.

The target of experiment [1] is BACE1 (Homo sapiens (Human), UniProt P56817). Description: Cellular Aβ-lowering assay. Type of experiment: cell-based. To be noted: HEK293 cells stably expressing human APP wt (APP695); Aβ40 in supernatant by ELISA after 18-20 hrs. The protocol:
Cellular Aβ-Lowering Assay: Human HEK293 cells which are stably transfected with a vector expressing a cDNA of the human APP wt gene (APP695) were used to assess the potency of the compounds in a cellular assay. The cells were seeded in 96-well microtiter plates in cell culture medium (Iscove, plus 10% (v/v) fetal bovine serum, glutamine, penicillin/streptomycin) to about 80% confluence and the compounds were added at a 10× concentration in 1/10 volume of medium without FCS containing 8% DMSO (final concentration of DMSO was kept at 0.8% v/v). After 18-20 hrs incubation at 37° C. and 5% CO2 in a humidified incubator the culture supernatant was harvested for the determination of Aβ40 concentrations. […] After blocking of non-specific binding sites with e.g. 1% BSA and washing, the culture supernatants were added in suitable dilutions together with a horseradish peroxidase-coupled Aβ detection antibody (e.g., antibody 4G8, Senetek, Maryland Heights, Mo.) and incubated for 5 to 7 hrs. Subsequently the wells of the microtiter plate were washed extensively with Tris-buffered saline containing 0.05% Tween 20 and the assay was developed with tetramethylbenzidine/H2O2 in citric acid buffer. After stopping the reaction with one volume […] the reaction was measured in an ELISA reader at 450 nm wavelength. The concentrations of Aβ in the culture supernatants were calculated from a standard curve obtained with known amounts of pure Aβ peptide.

Experiment [2] deals with BACE2 (Rattus norvegicus (Rat), UniProt Q6IE75). Kind of experiment: Assay for BACE inhibition by measuring cellular TMEM27 cleavage. Type of experiment: cell-based. As to conditions: INS-TMEM27 (INS1e rat cell line, inducible hTMEM27); shed TMEM27 by ELISA. The text has this:
Assay for BACE Inhibition by Measuring Cellular TMEM27 Cleavage:
The assay uses the principle of inhibition of human TMEM27 cleavage by endogenous cellular BACE2 in the Ins1e rat cell line and shedding from the cell surface into the culture medium, followed by detection in an ELISA assay Inhibition of BACE2 prevents the cleavage and shedding in a dose-dependent manner.
The stable cell line “INS-TMEM27” represents an INS1e-derived cell line with inducible expression (using the TetOn system) of full-length hTMEM27 in a doxycycline-dependent manner. The cells are cultured throughout the experiment in RPMI1640+Glutamax (Invitrogen) Penicillin/Streptomycin, 10% Fetal bovine serum, […], […], 100 micrograms/ml G418 and 100 microgram/ml hygromycin and are grown inadherent culture at 37° C. in a standard CO2 cell culture incubator.
INS-TMEM27 cells are seeded in 96-well plates. After 2 days in culture, BACE2 inhibitor is added in a range of concentrations as required by the assay and after a further two hours, doxycycline is added to a final concentration of 500 ng/ml. The cells are incubated for a further 46 hours and the supernatant harvested for detection of shed TMEM27.
An ELISA assay (using a pair of mouse anti-human-TMEM27 antibodies, raised against the extracellular domain of TMEM27) is used for detection of TMEM27 in the culture medium. An EC50 for BACE2 inhibition is calculated using the ELISA readout for each inhibitor concentration with standard curve-fitting software such as XLFit for the Excel spreadsheet program.

Sequence of BACE1 (P56817 46-501): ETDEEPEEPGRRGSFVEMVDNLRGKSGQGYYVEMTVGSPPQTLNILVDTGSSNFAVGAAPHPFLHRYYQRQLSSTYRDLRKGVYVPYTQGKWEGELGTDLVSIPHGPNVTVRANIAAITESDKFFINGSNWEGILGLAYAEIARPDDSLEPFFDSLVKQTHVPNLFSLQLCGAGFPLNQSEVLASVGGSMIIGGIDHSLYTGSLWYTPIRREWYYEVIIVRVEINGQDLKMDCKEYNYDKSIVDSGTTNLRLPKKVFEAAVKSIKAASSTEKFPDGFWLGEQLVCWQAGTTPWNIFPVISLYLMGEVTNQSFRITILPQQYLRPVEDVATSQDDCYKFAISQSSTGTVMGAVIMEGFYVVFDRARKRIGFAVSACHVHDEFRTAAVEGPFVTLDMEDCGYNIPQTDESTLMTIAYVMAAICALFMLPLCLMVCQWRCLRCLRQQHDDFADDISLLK
Sequence of BACE2 (Q6IE75 63-514): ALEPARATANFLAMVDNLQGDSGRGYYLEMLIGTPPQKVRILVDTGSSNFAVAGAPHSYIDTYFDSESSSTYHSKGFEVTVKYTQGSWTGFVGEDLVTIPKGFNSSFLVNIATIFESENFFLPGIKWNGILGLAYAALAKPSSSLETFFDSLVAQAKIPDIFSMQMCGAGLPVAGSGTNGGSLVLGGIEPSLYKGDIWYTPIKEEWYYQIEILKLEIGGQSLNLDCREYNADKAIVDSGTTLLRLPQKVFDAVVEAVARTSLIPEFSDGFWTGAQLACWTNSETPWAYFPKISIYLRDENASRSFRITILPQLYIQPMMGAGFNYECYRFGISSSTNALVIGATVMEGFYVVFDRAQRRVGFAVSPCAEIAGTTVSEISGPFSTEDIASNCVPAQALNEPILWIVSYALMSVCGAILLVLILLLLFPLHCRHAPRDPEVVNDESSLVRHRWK

Consider `C[C@]1(F)COC(N)=N[C@]1(C)c1cc(NC(=O)c2nn(CC(F)F)cc2Cl)ccc1F` [Example 43, 4-Chloro-1-(2,2-difluoro-ethyl)-1H-pyrazole-3-carboxylic acid [3-((4R,5R)-2-amino-5-fluoro-4,5-dimethyl-5,6-dihydro-4H-[1,3]oxazin-4-yl)-4-fluoro-phenyl]amide], for which the concentration for half-maximal inhibition (IC50) in experiment [1] is 183 nM; in experiment [2], 110 nM.

With `C[C@]1(F)COC(N)=N[C@]1(C)c1cc(NC(=O)C2CC2(F)F)ccc1F` (stereo partly drawn) [Example 44, 2,2-Difluoro-cyclopropanecarboxylic acid [3-((4R,5R)-2-amino-5-fluoro-4,5-dimethyl-5,6-dihydro-4H-[1,3]oxazin-4-yl)-4-fluoro-phenyl]-amide], the IC50 in experiment [1] came out at 32 nM; in experiment [2], 140 nM.

Consider `C[C@]1(c2cc(NC(=O)c3ccc(Cl)cn3)ccc2F)N=C(N)OC[C@@H]1OCC(F)(F)F` [Example 45, 5-Chloro-pyridine-2-carboxylic acid {3-[(4R,5R)-2-amino-4-methyl-5-(2,2,2-trifluoro-ethoxy)-5,6-dihydro-4H-[1,3]oxazin-4-yl]-4-fluoro-phenyl}-amide], for which the figures for the IC50 in experiment [1] and in experiment [2] were 1 nM and 61 nM, respectively.

In the case of `C[C@]1(c2cc(NC(=O)c3ccc(F)cn3)ccc2F)N=C(N)OC[C@@H]1OCC(F)(F)F` [Example 46, 5-Fluoro-pyridine-2-carboxylic acid {3-[(4R,5R)-2-amino-4-methyl-5-(2,2,2-trifluoro-ethoxy)-5,6-dihydro-4H-[1,3]oxazin-4-yl]-4-fluoro-phenyl}-amide], the IC50 in experiment [1] worked out at 2 nM; in experiment [2] it was 65 nM.

On to `C[C@]1(c2cc(NC(=O)c3ccc(C#N)cn3)ccc2F)N=C(N)OC[C@@H]1OCC(F)(F)F` [Example 47, 5-Cyano-pyridine-2-carboxylic acid {3-[(4R,5R)-2-amino-4-methyl-5-(2,2,2-trifluoro-ethoxy)-5,6-dihydro-4H-[1,3]oxazin-4-yl]-4-fluoro-phenyl}-amide], for which the half-inhibitory concentration (IC50) was determined as 1 nM in experiment [1] and 268 nM in experiment [2].

`C[C@]1(c2cc(NC(=O)c3ncc(Cl)cc3Cl)ccc2F)N=C(N)OC[C@@H]1OCC(F)(F)F` [Example 48, 3,5-Dichloro-pyridine-2-carboxylic acid {3-[(4R,5R)-2-amino-4-methyl-5-(2,2,2-trifluoro-ethoxy)-5,6-dihydro-4H-[1,3]oxazin-4-yl]-4-fluoro-phenyl}-amide]: the IC50 amounted to 3 nM in experiment [1] and 67 nM in experiment [2].
